Results reported in ChEMBL document CHEMBL1268985, “Syntheses of fluorescent imidazoquinoline conjugates as probes of Toll-like receptor 7” (Bioorg Med Chem Lett, 2010).

What was measured:
[1] = Drug uptake in mouse J774.1 cells assessed as perinuclear localization at 100 nM by confocal fluorescence microscopy; type: ADME, cell-based; settings: j774.1, 0.1 µM
Toll-like receptor 7 = molecular target: T1, Toll-like receptor 7 (Homo sapiens, UniProt Q9NYK1); experiment: Agonist activity at human TLR7 expressed in HEK-Blue-7 cells assessed as increase in NF-kappaB activation by sAP assay; type: functional, cell-based
T1 sequence (Q9NYK1 whole entry): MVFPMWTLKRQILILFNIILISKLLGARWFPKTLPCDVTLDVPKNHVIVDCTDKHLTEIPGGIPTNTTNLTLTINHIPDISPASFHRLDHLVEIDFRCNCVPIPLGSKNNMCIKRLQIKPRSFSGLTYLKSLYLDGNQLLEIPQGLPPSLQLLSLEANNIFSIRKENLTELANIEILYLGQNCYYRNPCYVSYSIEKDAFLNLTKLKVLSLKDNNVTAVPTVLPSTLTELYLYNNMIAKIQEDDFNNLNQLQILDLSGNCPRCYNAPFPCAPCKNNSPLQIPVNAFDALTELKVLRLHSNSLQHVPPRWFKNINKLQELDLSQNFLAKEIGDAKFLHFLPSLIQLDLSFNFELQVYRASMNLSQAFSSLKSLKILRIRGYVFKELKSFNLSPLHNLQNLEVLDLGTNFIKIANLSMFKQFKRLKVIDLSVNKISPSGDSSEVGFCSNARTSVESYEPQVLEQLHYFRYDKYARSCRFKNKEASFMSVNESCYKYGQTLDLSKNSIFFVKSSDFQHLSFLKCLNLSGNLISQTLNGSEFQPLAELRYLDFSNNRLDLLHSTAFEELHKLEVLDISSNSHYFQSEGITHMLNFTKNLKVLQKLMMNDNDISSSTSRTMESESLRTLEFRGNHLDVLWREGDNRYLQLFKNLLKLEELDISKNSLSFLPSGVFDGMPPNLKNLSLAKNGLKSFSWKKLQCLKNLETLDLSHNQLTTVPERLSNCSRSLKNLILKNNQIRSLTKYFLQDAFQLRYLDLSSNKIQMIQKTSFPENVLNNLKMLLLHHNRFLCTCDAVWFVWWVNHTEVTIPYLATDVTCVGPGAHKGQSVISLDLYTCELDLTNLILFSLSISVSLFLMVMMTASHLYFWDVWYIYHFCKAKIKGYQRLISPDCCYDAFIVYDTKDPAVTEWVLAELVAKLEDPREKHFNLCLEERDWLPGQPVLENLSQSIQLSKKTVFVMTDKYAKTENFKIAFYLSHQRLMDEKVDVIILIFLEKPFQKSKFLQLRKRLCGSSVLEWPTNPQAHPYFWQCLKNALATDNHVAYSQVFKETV

[2] = Drug uptake in human CD3-/CD56+ natural killer cells treated for 30 mins by flow cytometry; type: ADME; settings: nk cell, 0.5 h
[3] = Drug uptake in human CD3-/CD56- B lymphocytes treated for 30 mins by flow cytometry; type: ADME, cell-based; settings: b-cell, 0.5 h
[4] = Drug uptake in human CD3+/CD56- T lymphocytes treated for 30 mins by flow cytometry; type: ADME, cell-based; settings: t-cell, 0.5 h

| Drug uptake [1] | EC50 (Toll-like receptor 7) | Drug uptake [3] | Drug uptake [4] | Structure (SMILES) | Drug uptake [2] |
| --- | --- | --- | --- | --- | --- |
| Active | 108 nM | – | – | CCCCc1nc2c(N)nc3ccccc3c2n1Cc1ccc(CNC(=S)NCCCCCNC(=O)COc2ccc(C3=[N+]4C(=Cc5ccc(-c6cccs6)n5[B-]4(F)F)C=C3)cc2)cc1 | – |
| – | 247 nM | Active | Active | CCCCc1nc2c(N)nc3ccccc3c2n1Cc1ccc(CNC(=S)Nc2cccc(-c3c4ccc(=O)cc-4oc4cc(O)ccc34)c2C(=O)O)cc1 | Active |
| – | 396 nM | – | – | CCCCc1nc2c(N)nc3ccccc3c2n1Cc1cccc2ccccc12 | – |
| – | 115 nM | – | – | CCCCc1nc2c(N)nc3ccccc3c2n1Cc1ccc(CNC(=S)Nc2ccc(-c3c4ccc(=[N+](CC)CC)cc-4oc4cc(N(CC)CC)ccc34)c(C(=O)O)c2)cc1 | – |
